Source: PMC10813298, “Evidence of Guanidines Potential against Leishmania (Viannia) braziliensis: Exploring In Vitro Effectiveness, Toxicities and of Innate Immunity Response Effects” (Biomolecules, 2023)

Key:
[1] = tested on: L. (L.) amazonensis promastigotes; parameters: method as in PMID 30913526; conditions: read-out: IC50 antipromastigote activity; cited from earlier work
[2] = tested on: reactive oxygen species (ROS); experiment: ROS production (H2DCFDA) in infected RAW 264.7 macrophages; format: cell-based, murine; conditions: RAW 264.7 macrophages infected with L. (V.) braziliensis
Procedure: To quantify the levels of ROS generated by L. (V.) braziliensis-infected RAW 264.7 macrophages, the following procedure was employed: RAW 264.7 macrophages (1 × 10^5 cells per well) were added to a 96-well plate, with each well containing 100 μL of supplemented DMEM medium. These cells were allowed to incubate for 3 h at 37 °C with 5% CO2 to promote cell adhesion. Subsequently, the macrophages were infected with L. (V.) braziliensis at a ratio of 10:1 (promastigotes to macrophages) and incubated for 4 h. After the infection period, the cells were plated and incubated with various concentrations of test substances, ranging from 3.12 to 25 μmol/L. This incubation was carried out at 37 °C with 5% CO2 for duration of 72 h. Following the incubation period, 10 µL of H2DCFDA dye was added to each well, resulting in a final concentration of 20 µmol/L. The cells were then incubated at 37 °C in the dark for 30 min. The fluorescent intensity was measured using a fluorescence plate reader (FLx800) at an excitation wavelength of 485 nm and an emission wavelength of 528 nm. The fold change in ROS levels was calculated by comparing the results to a normal control.

[3] = Cell toxicity, MTT-based EZ4U assay, CaCo-2; conditions: human, CaCo-2 cells (colon carcinoma); for viability at 72 h, 2.34 µmol/L: CACO2, 2.34 µmol/L; for viability at 72 h, 4.6875 µmol/L: CACO2, 4.6875 µmol/L; for viability at 72 h, 9.375 µmol/L: CACO2, 9.375 µmol/L; for viability at 72 h, 18.75 µmol/L: CACO2, 18.75 µmol/L; for viability at 72 h, 37.5 µmol/L: CACO2, 37.5 µmol/L; for viability at 72 h, 75 µmol/L: CACO2, 75 µmol/L; for viability at 72 h, 150 µmol/L: CACO2, 150 µmol/L; for viability at 72 h, 300 µmol/L: CACO2, 300 µmol/L; for viability at 72 h, 600 µmol/L: CACO2, 600 µmol/L
Procedure: In this study, we utilized the RAW 264.7 macrophages line (obtained from ATCC: code TIB-71™),human embryonic kidney cell line HEK-293 (obtained from ATCC: code CRL-1573™)and two human cancer cell cultures: the colon carcinoma cell line CaCo-2 and the adenocarcinomic human alveolar basal epithelial cell A549 (also obtained from ATCC: codesHTB-37™ and CCL-185™).These cell lines were cultured in Dulbecco’s modified Eagle medium (DMEM) from Gibco by Life Technologies (LifeTech Austria, Vienna, Austria). The growth medium was supplemented with 5% fetal bovine serum (FBS) from Gibco by Life Technologies and 1% penicillin-streptomycin obtained from Sigma-Aldrich (Vienna, Austria). The cells were maintained at 37 °C with 5% CO2 in a humidified incubator, and regular checks for mycoplasma contamination were carried out.
For experimental purposes, the cells were seeded into 96-well plates at a density of 2 × 10^4 cells/mL, with each well containing 100 µL of the cell suspension. The cells were allowed to adhere for 24 h. Subsequently, they were exposed to 100 µL of the test compounds, which were diluted in DMEM, with concentrations ranging from 2 to 600 µmol/L. The stock solutions of these compounds were prepared in water with 10% (v/v) dimethyl sulfoxide (DMSO) and stored at 4 °C.
To assess cell viability after 72 h of exposure to the compounds, we employed a 3-(4,5-dimethylthiazol-2-yl)-2,5-diphenyltetrazolium bromide (MTT)-based vitality assay kit (EZ4U, Biomedica, Vienna, Austria). Briefly, we added 20 µL of the EZ4U assay solution to each well and incubated the plates in the dark for 2 h. Subsequently, we measured the absorbance using a microplate reader at 450 nm, with 620 nm as a reference to reduce unspecific background values. For reliability, all experiments were conducted three times with triplicate samples.

TNF-α = experiment: Cytokine production in supernatant of infected macrophages (ELISA), TNF-α; format: cell-based, murine; conditions: supernatant of RAW 264.7 macrophages infected with L. (V.) braziliensis
From the text: To assess the production of cytokines TNF-α and IL-12 (associated with Th1 response), as well as IL-10 and IL-6 (associated with Th2 response), in the supernatants of the macrophage infection assay, the sandwich enzyme-linked immunosorbent assay (ELISA) method was employed, following the manufacturer’s instructions (eBioscience^TM, San Diego, CA, USA). Initially, capture antibodies specific to TNF-α, IL-6, IL-10, and IL-12 were sensitized in ELISA plates (NUNC-ImmunoTM, Sigma-Aldrich, St. Louis, MO, USA). The plates were incubated at 4 °C for 18 h. After the incubation period, all wells were washed with a solution containing 0.05% PBS and Tween 20 (Sigma-Aldrich, St. Louis, MO, USA). A blocking solution containing 10% FBS in PBS was added to the wells and incubated for 1 h. Subsequently, the wells were washed again. The supernatant obtained from the macrophage infection assay was added to the respective wells. Known concentrations of recombinant cytokines (TNF-α, IL-10, IL-6, and IL-12) were also added to the plate in parallel, covering a range from high to low concentrations. The plates were maintained at 4 °C for another 18 h. Following this incubation, additional washes were performed. The detector complex, consisting of biotinylated detection antibodies, was added to the wells. The plates were incubated for an additional hour. After another round of washing, the enzymatic complex avidin-peroxidase was added to each well. The plates were incubated for 30 min at room temperature. The reaction was initiated by adding a substrate solution containing tetramethylbenzidine and hydrogen peroxide. This reaction was allowed to proceed for 15 min. To stop the reaction, 1N sulfuric acid was added to each well. The absorbance was measured in a plate reader at a wavelength of 450 nm. The concentration of cytokines (TNF-α, IL-10, IL-6, and IL-12) in the supernatants was determined by interpolation from the standard curve.

Row | Compound | IC50 [1] [µM] | ROS level [2] | viability at 72 h, 2.34 µmol/L [3] [%] | viability at 72 h, 4.6875 µmol/L [3] [%] | viability at 72 h, 9.375 µmol/L [3] [%] | viability at 72 h, 18.75 µmol/L [3] [%] | viability at 72 h, 37.5 µmol/L [3] [%] | viability at 72 h, 75 µmol/L [3] [%] | viability at 72 h, 150 µmol/L [3] [%] | viability at 72 h, 300 µmol/L [3] [%] | viability at 72 h, 600 µmol/L [3] [%] | TNF-α level (TNF-α)
1 | O=C(/N=C(/NCc1ccccc1)Nc1ccc([N+](=O)[O-])cc1)c1ccccc1 [LQOF-G1, (Z)-N-benzoyl-N-benzyl-N-(4-nitrophenyl)guanidine] | 11.5 | increased | 106 ± 8 | 109 ± 5 | 109 ± 7 | 109 ± 10 | 97 ± 13 | 99 ± 7 | 107 ± 3 | 103 ± 10 | 119 ± 5 | increased
2 | O=C(/N=C(/NCc1ccccc1)Nc1ccc(Br)cc1)c1ccccc1 [LQOF-G2, (Z)-N-benzoyl-N-benzyl-N-(4-bromophenyl)guanidine] | 19.6 | increased | 106 ± 3.6 | 109 ± 13.6 | 109 ± 14.7 | 103 ± 5.7 | 97 ± 4.9 | 99 ± 6.4 | 107 ± 5.3 | 103 ± 6.6 | 119 ± 8.8 | increased
3 | CC(C)(C)c1ccc(N/C(=N\C(=O)c2ccccc2)NCc2ccccc2)cc1 [LQOF-G6, (Z)-N-benzoyl-N-benzyl-N-(4-tert-butylphenyl)guanidine] | 25.9 | increased |  |  |  |  |  |  |  |  |  | increased
4 | O=C(/N=C(/NCc1ccccc1)Nc1ccc(I)cc1)c1ccccc1 [LQOF-G7, (Z)-N-benzoyl-N-benzyl-N-(4-iodophenyl)guanidine] | 15.9 |  |  |  |  |  |  |  |  |  |  | 
5 | O=C(/N=C(/NCc1ccc(Cl)cc1Cl)Nc1ccc(Br)cc1)c1ccccc1 [LQOF-G32, (Z)-N-benzoyl-N-(2,4-di-chlorobenzyl)-N-(4-bromophenyl)guanidine] |  |  | 138 ± 8.4 | 123 ± 11.4 | 117 ± 7.3 | 116 ± 9.7 | 79 ± 6.4 | 53 ± 14.8 | 45 ± 10.4 | 45 ± 15.9 | 66 ± 12.3 | 
